Assay results published in ChEMBL document CHEMBL1143365, “Function-oriented synthesis applied to the anti-botulinum natural product toosendanin” (Bioorg Med Chem, 2009).
Active and inactive are the calls of the source. No cut-off for these calls is given here.

Assays:
Mus musculus [1] = assay: Antibotulinum activity against botulinum neurotoxin serotype A-induced toxicity in iv dosed mouse assessed as time to death; type: functional
Mus musculus [2] = organism: Mus musculus; assay: Toxicity in mouse at 2.5 mM; type: organism-based; conditions: in vivo, 2500 µM
Mus musculus [3] = assay: Antibotulinum activity against botulinum neurotoxin serotype A-induced toxicity in iv dosed mouse after 48 hrs; type: functional, organism-based

Structure (SMILES) | Activity (Mus musculus [1]) [h] | Activity (Mus musculus [2]) | Activity (Mus musculus [3])
CC(=O)O[C@@H]1C[C@H](O)[C@@]23CO[C@@H](O)[C@]1(C)[C@@H]2C[C@@H](O)[C@]1(C)[C@@H]3C(=O)[C@H](OC(C)=O)[C@@]2(C)[C@H](c3ccoc3)C[C@H]3O[C@]321 [TOOSENDANIN] | 7.1 | – | –
CC(=O)OC1C(=O)CC(C)(C)C23OC2CC(c2ccccc2)C13C (racemic) | – | Non-toxic | inactive
